Data on 1 substance can be found in patent US8163699B2, “Method for the treatment of valvular disease” (Montreal Heart Institute, priority 2006, dated 2012).

A short description of assay [1]: Serum lipids and calcemia in rabbit model of aortic valve stenosis. The format is in vivo, New-Zealand White rabbits. The settings on record: for HDL-cholesterol / total cholesterol levels: treated group. On the procedure: The animals then returned to a standard diet (without vitamin D2) to mimic cholesterol lowering and were randomly assigned to receive either saline (control group, n=8) or the ApoA-1 mimetic peptide (treated group, n=7). Rabbits were given injections through the marginal ear vein of saline or of the ApoA-1 mimetic peptide (25 mg/kg) complexed with phospholipids (Compound A), 3 times per week for 2 weeks. Echocardiograms were performed serially (see Echocardiography Methods) every 3 to 4 days throughout the randomized treatment period. Two days after their last infusion, the animals underwent a final echocardiogram and were sacrificed, and the aortic valves were harvested for histological analyses. Blood samples were obtained through the ear artery at baseline, prior to treatment and before sacrifice. Total cholesterol, HDL cholesterol, triglycerides and calcium levels were measured with an automated filter photometer system (Dimension RxL Max, Dade Behring, Ill.).
Data are presented as mean±standard deviation. For the “pre-treatment” period, repeated measures analysis of variance (ANOVA) models were used to study the echocardiographic and serum measurements across time and between groups (treated vs. control groups). Models with time, group and group×time interaction as independent variables were used and comparisons between groups at a given time point were undertaken only in the presence of a significant group×time interaction. Otherwise, global conclusions were drawn based on the main group effects of the model. For the randomized treatment period, repeated measures analysis of covariance (ANCOVA) models were used to study the echocardiographic and serum measurements across time and between groups (treated vs. control groups), adjusted for the baseline value of the response variable. The group×time interaction was also included in the ANCOVA models and comparisons between groups at a given time point were undertaken only in the presence of a significant group×time interaction. Otherwise, global conclusions were drawn based on the main group effects of the model. Histological variables were compared between treated and control groups using Student t-test. Relationships between histomorphometry and echocardiographic variables were evaluated using Pearson correlation coefficient. All analyses were performed with SAS release 8.2 (SAS Institute Inc., Cary, N.C.) and conducted at the 0.05 significance level.

Assay [2] has as its system aortic valve lesions. The experiment in a line: Histochemistry of aortic valves (von Kossa, filipin, Sirius red, immunohistochemistry) in rabbit model of aortic valve stenosis. The format is in vivo, New-Zealand White rabbits. The source says:
An animal model adapted from that described by Drolet et al. (12) was used. Fifteen male New-Zealand White rabbits (2.7-3.0 kg, aged 12-13 weeks) were fed with a 0.5% cholesterol-enriched diet (Harlan, Indianapolis, Ind.) plus vitamin D2 (50000 UI per day; Sigma, Markham, Canada) in the drinking water until significant AVS, as defined by a decrease ≧10% of aortic valve area (AVA) or of the transvalvular velocities ratio (V1/V2), could be detected by echocardiography (12.9±2.4 weeks). The animals then returned to a standard diet (without vitamin D2) to mimic cholesterol lowering and were randomly assigned to receive either saline (control group, n=8) or the ApoA-1 mimetic peptide (treated group, n=7). Rabbits were given injections through the marginal ear vein of saline or of the ApoA-1 mimetic peptide (25 mg/kg) complexed with phospholipids (Compound A), 3 times per week for 2 weeks. Echocardiograms were performed serially (see Echocardiography Methods) every 3 to 4 days throughout the randomized treatment period. Two days after their last infusion, the animals underwent a final echocardiogram and were sacrificed, and the aortic valves were harvested for histological analyses. Blood samples were obtained through the ear artery at baseline, prior to treatment and before sacrifice. Total cholesterol, HDL cholesterol, triglycerides and calcium levels were measured with an automated filter photometer system (Dimension RxL Max, Dade Behring, Ill.). Hematoxylin-phloxin-safran, von Kossa and Sirius red (F3B, BDH, UK) stained sections were prepared for routine examination, tissue calcification and collagen studies respectively. Collagen fibers types I and III were quantified as previously described (13), on Sirius red picric acid stained sections under polarized light. For immunohistochemistry evaluation, all sections were preincubated with either mouse IgG2a monoclonal antibody against rabbit macrophage (RAM11, Dako, Canada) (1:100 dilution) or rabbit smooth muscle cell α-actin (Clone 1A4, Dako, Canada) (1:200 dilution). Species-appropriate biotinylated secondary antibodies were applied, followed by streptavidin horseradish peroxidase complex, visualized with azoethylcarbazol (AEC) and counterstained by Mayer's hematoxylin. Smooth muscle cells, macrophages and calcification areas were quantified in the ROA on digital images acquired at 40× magnification. Images from each section were digitally captured with the same illumination settings, and automatic computer-based analysis was performed with the same color threshold for all specimens. Data were expressed as percent labelled area in ROA. For assessment of tissue free cholesterol, 5 μm cryosections fixed in 4% paraformaldehyde in PBS (pH 7.4) were stained with filipin (13). Sections were incubated for 1 hour at room temperature in filipin complex (Sigma, Canada) dissolved in DMSO and diluted in PBS, mounted in Vectashield (Vector Laboratories, USA) and viewed by fluorescence microscopy using a Zeiss Axiovert 200M microscope with the DAPI filter set. Images were acquired with an AxioCam MRm digital camera mounted with a 0.63× C-mount adapter. Filipin data were expressed as arbitrary units of fluorescence intensity. Data are presented as mean±standard deviation. For the “pre-treatment” period, repeated measures analysis of variance (ANOVA) models were used to study the echocardiographic and serum measurements across time and between groups (treated vs. control groups). Models with time, group and group×time interaction as independent variables were used and comparisons between groups at a given time point were undertaken only in the presence of a significant group×time interaction. Otherwise, global conclusions were drawn based on the main group effects of the model. […]

Setting [3] is: at the time of randomization (pre-treatment value).
[4] abbreviates: treated rabbits, Sirius red, polarized light.

For the substance “H-Pro-Val-Leu-Asp-Leu-Phe-Arg-Glu-Leu-Leu-Asn-Glu-Leu-Leu-Glu-Ala-Leu-Lys-Gln-Lys-Leu-Lys-OH (H-PVLDLFRELLNELLEALKQKLK-OH; not fully specified) [ApoA-1 mimetic peptide, ApoA-1 mimetic peptide complexed with phospholipids, mimicking nascent HDL]”, in assay [1] (at end of treatment), the HDL-cholesterol was 0.45 ± 0.17 mmol/L and the total cholesterol levels was 17.57 ± 10.32 mmol/L. In addition, in assay [1] (setting [3]), the HDL-cholesterol was 0.50 ± 0.15 mmol/L and the total cholesterol levels was 20.13 ± 5.18 mmol/L. In assay [1] (treated vs. control group during treatment period, P=0.544), the triglyceride levels entry is recorded as “similar”. In addition, the “decrease in free cholesterol compared to controls” value in assay [2] (treated animals vs. controls, first 10 μm at luminal edge of lesions, not statistically significant, P=0.231) was 41%. Further, the “free cholesterol (filipin fluorescent signal)” value in assay [2] (treated animals, within the first 10 μm at the luminal edge of lesions) is recorded as 221±54 arbitrary units of fluorescence intensity. The “percentage of rabbits with calcium deposits in the lesion core in the sinuses of Valsalva” value in assay [2] (treated group) amounted to 57%. Further, the “decrease of calcification area compared to controls” value in assay [2] (treated group vs. controls, von Kossa staining, strong trend, P=0.063) is 77%. Also, the “percentage of the sinus of Valsalva area occupied by calcifications” value in assay [2] (treated group, von Kossa staining) was 1.6±2.0%. For the same substance, in assay [2] (setting [4]), the “percentage of collagen type I fibers in the ROA” value is 5.5±5.6 %/ROA and the “percentage of collagen type III fibers in the ROA” value is recorded as 19.1±11.3 %/ROA. Further, in assay [2] (treated vs. control group, RAM11 immunohistochemistry), the macrophage areas result is given as “no significant differences between groups”. Moreover, the α-actin positive areas entry in assay [2] (treated vs. control group, smooth muscle cell α-actin immunohistochemistry) was “no significant differences between groups”.
